Experiment [1] deals with Leishmania donovani. Briefly: Antileishmanial activity against Leishmania donovani promastigotes at 25 uM. In kind it is functional.
Experiment [2] concerns Leishmania donovani. Briefly: Immunosuppressive activity in Leishmania donovani assessed as inhibition of PGE2 production. In kind it is functional, organism-based.
Experiment [3] relates to Leishmania donovani. The experiment can be described thus: Antileishmanial activity against Leishmania donovani promastigotes at 50 uM. In kind it is functional.
The test system of experiment [4] is Leishmania donovani. Briefly: Antileishmanial activity against Leishmania donovani amastigotes assessed as reduction in microbial growth. In kind it is functional, organism-based.
Experiment [5] deals with Leishmania amazonensis. Briefly: Antileishmanial activity against Leishmania amazonensis promastigotes assessed as reduction in parasite viability after 48 hrs by MTT assay. In kind it is functional, organism-based. On the technique in general: Tetrazolium dyes change colour on reduction, which living cells bring about.
For experiment [6], the system named is Leishmania infantum. Briefly: Antileishmanial activity against Leishmania infantum promastigote assessed as reduction in parasite growth after 72 hrs by MTT assay. In kind it is functional, organism-based.
Experiment [7] concerns Leishmania amazonensis. Briefly: Antileishmanial activity against Leishmania amazonensis amastigotes assessed as reduction in parasite growth. In kind it is functional, organism-based.
The test system of experiment [8] is Leishmania amazonensis. The experiment can be described thus: Antileishmanial activity against Leishmania amazonensis promastigotes assessed as reduction in parasite viability after 72 hrs by CCK-8 assay. In kind it is functional, organism-based.
Experiment [9] relates to Leishmania mexicana. The experiment can be described thus: Antileishmanial activity against Leishmania mexicana intracellular amastigotes infected in J774 macrophages assessed as reduction in parasite viability after 72 hrs by MTT based analysis. To be noted: J774, 72 h. In kind it is functional, organism-based.
The test system of experiment [10] is J774.A1. Briefly: Cytotoxicity against mouse J774.A1 cells assessed as reduction in cell viability incubated for 24 hrs by MTT assay. In kind it is functional.
Experiment [11] has as its system Leishmania amazonensis. Briefly: Antileishmanial activity against Leishmania amazonensis MHOM/BR/1989/166MJO promastigotes assessed as reduction in […] growth. In kind it is functional, organism-based.
In experiment [12] the test system is Leishmania amazonensis. Briefly: Antileishmanial activity against Leishmania amazonensis MHOM/BR/1989/166MJO promastigotes infected in mouse macrophage assessed as parasite growth inhibition measured after 72 hrs by MTT assay. In kind it is functional, organism-based.
Experiment [13] deals with Leishmania tropica. The experiment can be described thus: Antileishmanial activity against Leishmania tropica amastigotes incubated for 24 hrs measured by alamar blue staining based fluorescence analysis. In kind it is functional, organism-based.
Experiment [14] relates to Leishmania tropica. Briefly: Antileishmanial activity against Leishmania tropica promastigotes incubated for 24 hrs measured by alamar blue staining based fluorescence analysis. In kind it is functional, organism-based. A general note: The colour change of resazurin is a common sign of viable cells or microbes.
For experiment [15], the system named is Leishmania major. The experiment can be described thus: Antileishmanial activity against Leishmania major IR-173 amastigotes assessed as parasite growth inhibition incubated for 72 hrs by resazurin dye based assay. In kind it is functional, organism-based. To be noted: IR-173, 72 h.
Experiment [16] concerns Leishmania amazonensis. The experiment can be described thus: Antileishmanial activity against Leishmania amazonensis promastigotes assessed as inhibition of parasite growth. In kind it is functional, organism-based.
Experiment [17] concerns Leishmania infantum. Briefly: Antileishmanial activity against Leishmania infantum MON-1 promastigotes assessed as reduction in parasite viability measured after 48 hrs by MTT assay. In kind it is functional, organism-based. To be noted: MON-1, 48 h.
Experiment [18] relates to Leishmania infantum. The experiment can be described thus: Antileishmanial activity against Leishmania infantum MHOM/MA/67/ITMAP263 promastigotes expressing red-shifted luciferase gene infected in mouse J774 cells incubated for 24 hrs by microplate luminometer analysis. In kind it is functional, organism-based. To be noted: MHOM/MA/67/ITMAP263, J774, 24 h.
For experiment [19], the system named is Leishmania donovani. Briefly: Antileishmanial activity against Leishmania donovani amastigotes assessed as parasite growth inhibition incubated for 72 hrs by MTS assay. In kind it is functional, organism-based.
The test system of experiment [20] is Leishmania infantum. The experiment can be described thus: Antileishmanial activity against Leishmania infantum MHOM/BR/70/BH46 promastigotes assessed as inhibition of parasite growth incubated for 72 hrs by Neubauer chamber based analysis. In kind it is functional, organism-based. To be noted: MHOM/BR/70/BH46, 72 h.
The test system of experiment [21] is Leishmania donovani. Briefly: Antileishmanial activity against Leishmania donovani BHU575 promastigotes assessed as cell viability by MTT assay. In kind it is functional, organism-based.
Experiment [22] has as its system Leishmania tropica. Briefly: Antileishmanial activity against Leishmania tropica promastigotes assessed as inhibition of parasite growth. In kind it is functional, organism-based.
In experiment [23] the test system is Leishmania infantum. The experiment can be described thus: Antileishmanial activity against Leishmania infantum amastigotes infected in human THP-1 cells assessed as reduction in parasite growth incubated for 72 hrs by high content imaging analysis. In kind it is functional, organism-based. To be noted: THP-1, 72 h.
Experiment [24] relates to Leishmania amazonensis. The experiment can be described thus: Antileishmanial activity against Leishmania amazonensis promastigotes assessed as inhibition of parasite growth at 10 uM relative to control. In kind it is functional. Details: scale not given: the % may be the effect or the level left.
The subject of experiment [25] is Leishmania amazonensis. The experiment can be described thus: Antileishmanial activity against Leishmania amazonensis promastigotes assessed as reduction in parasite viability measured after 48 hrs by alamar blue analysis. In kind it is functional, organism-based.
For experiment [26], the system named is Leishmania major. Briefly: Antileishmanial activity against Leishmania major promastigote assessed as inhibition of parasite growth. In kind it is functional, organism-based.
In experiment [27] the test system is Leishmania amazonensis. Briefly: Antileishmanial activity against Leishmania amazonensis promastigotes. In kind it is functional, organism-based.
Experiment [28] deals with Leishmania donovani. The experiment can be described thus: Antileishmanial activity against Leishmania donovani amastigotes. In kind it is functional, organism-based.
Experiment [29] concerns Leishmania donovani. Briefly: Antileishmanial activity against Leishmania donovani promastigotes. In kind it is functional, organism-based.
Experiment [30] can be described thus: Inhibition of recombinant Leishmania mexicana Trypanothione reductase.

Structures are written as SMILES. ≈ marks a conversion by molar mass, not a printed value.

One may read the IC50 as the concentration needed to halve the response being measured. What is called CC50 is the concentration giving 50% cytotoxicity. One may read the EC50 as the concentration needed to bring the measured effect to its halfway point.

Take `COc1ccc2c(c1)O/C(=C/c1cc(O)cc(O)c1)C2=O`: the Activity in experiment [1] came to 105%; in experiment [3] it was 108%. The IC50 in [2] worked out at 5.9 µM.
With `NC(=S)N/N=C(/C=C/c1cccnc1)c1cccc(NC(=O)Nc2ccc(Cl)cc2)c1`, in experiment [4], the IC50 was found to be 3.81 µM.
With `COC(=O)C1=CCC[C@@H]2[C@@](C)(CCc3ccco3)[C@H](C(=O)OC)CC[C@@]12C`, the concentration for half-maximal inhibition (IC50) in [5] was found to be 0.027 µM.
Consider `C=C[C@@H](c1cc(CC=C(C)C)ccc1O)c1cc(CC=C(C)C)c(OC)cc1O`, for which the IC50 in [6] stood at 5.2 µM; in experiment [7], 1.13 µM; in experiment [8] it was 4.5 µM.
As to `COc1cc(/C=C/C(=O)c2cccc([N+](=O)[O-])c2)ccc1OCC=C(C)C`, in experiment [9], the IC50 came to 4.57 µM.
`COc1cc(C(=O)/C=C/c2ccc([N+](=O)[O-])cc2)c(C(C)=O)c2c(OC)cccc12`: the CC50 in [10] stood at 373 µM. The IC50 in [11] was found to be 3.3 µM; in experiment [12], 18.5 µM.
Take `Nc1ccc(C(=O)N/N=C2\C(=O)N(CC(O)COc3cc(=O)oc4ccccc34)c3ccccc32)cc1` (centres undefined): the half-maximal inhibitory concentration (IC50) in experiment [13] was 2.85 µM; in [14], 1.62 µM.
On to `Cc1ccc2c(NCCCCCNC(=O)c3cccc(/C=C/C(=O)c4ccc(C)o4)c3)ccnc2c1`, for which the IC50 in experiment [15] was determined as 0.46 µM.
For the compound `COC(=O)C1=CCC[C@@H]2[C@@](C)(CCc3ccco3)[C@H](C(=O)O)CC[C@@]12C`, the half-inhibitory concentration (IC50) in experiment [16] was 0.11 µM.
For the compound `COc1cc(OC)c(C(=O)/C=C/c2cccc(C)c2)c([N+](=O)[O-])c1`, the IC50 in experiment [17] was 74.1 µM. The EC50 in experiment [18] came out at 0.78 µM.
As for `C/C1=C\C(=O)OC(C(C)(C)C)CCCC(O)CCCC(O)CCCC(O)CCCC(O)CCCC(O)CCCC(O)CCCC(O)CCCCCC(O)C1` (centres undefined), the half-inhibitory concentration (IC50) in experiment [19] was 4.67 µM.
Consider `Cc1cc(Br)cc2c(/C=N\NC(=S)Nc3ccccc3)c[nH]c12`, for which, in [20], the concentration for half-maximal inhibition (IC50) is 5.6 µM.
Consider `CC1=CCC[C@H]2[C@](C)(Cc3cc(O)ccc3O)[C@@H](C)CC[C@]12C` [AVAROL], for which the IC50 turned out to be 7.42 µM in experiment [21], 7.08 µM in experiment [22] and 3.19 µM in [23].
In the case of `CC1=CCC[C@H]2[C@](C)(CC3=CC(=O)C=CC3=O)[C@@H](C)CC[C@]12C` [AVARONE], the IC50 in [21] worked out at 28.2 µM; in experiment [22], 20.3 µM.
As for `CC[C@H]1C[C@@H]2CN3CCc4c([nH]c5ccccc45)[C@](C(=O)OC)(C2)[C@H]13` [CORONARIDINE], the Activity in experiment [24] stood at 97%. Besides, the half-inhibitory concentration (IC50) in [25] came out at 12.5 µg/mL (≈ 36.9 µM).
For `COc1c2ccoc2nc2c(OC)cccc12` [GAMMA-FAGARINE], in experiment [26], the half-inhibitory concentration (IC50) is greater than 74.2 µM.
With `CC1(C)C=Cc2c(ccc3c2OCC2c4cc5c(cc4OC32)OCO5)O1` (centres undefined) [LEIOCARPIN], the IC50 in experiment [6] was found to be 15.5 µM; in experiment [27], 7.1 µM; in experiment [8], 11.4 µM.
For the compound `O=C1/C(=C/c2ccc(O)c(O)c2)Oc2cc(O)ccc21` [SULFURETIN], the concentration giving a half-maximal response (EC50) in experiment [28] came out at 0.33 µM; in [29], 4.58 µM.
For the compound `C[C@H]1[C@H](C)CC[C@]2(C(=O)O)CC[C@]3(C)C(=CC[C@@H]4[C@@]5(C)CC[C@H](O)C(C)(C)[C@@H]5CC[C@]43C)[C@H]12` [URSOLIC ACID], the 50% inhibitory concentration (IC50) in experiment [30] was 7.03 µM.

Values taken from ChEMBL document CHEMBL5532635, “The role of natural anti-parasitic guided development of synthetic drugs for leishmaniasis” (Eur J Med Chem, 2023).
